From ChEMBL document CHEMBL1144653, “The thioesterase domain from the pimaricin and erythromycin biosynthetic pathways can catalyze hydrolysis of simple thioester substrates” (Bioorg Med Chem Lett, 2007)

Experiments:
[1] = tested on: Saccharopolyspora erythraea; assay: Ratio of Kcat to Km in 6-deoxyerythronolide B polyketide synthase thioesterase expressed in Escherichia coli
Streptomyces natalensis = assay: Ratio of Kcat to Km in pimaricin thioesterase expressed in Escherichia coli

Row | SMILES | kcat/Km [1] | kcat/Km (Streptomyces natalensis)
1 | CC[C@H](O)[C@@H](C)C(=O)SCCNC(C)=O | 3.6 M⁻¹ s⁻¹ | 0.02 M⁻¹ s⁻¹
2 | CC/C=C(\C)C(=O)SCCNC(C)=O | – | 1.3 M⁻¹ s⁻¹
3 | CCCC(C)C(=O)SCCNC(C)=O (stereo not drawn) | 0.17 M⁻¹ s⁻¹ | 0.24 M⁻¹ s⁻¹

The remaining lines, values ahead:

Row | kcat/Km [1] | kcat/Km (Streptomyces natalensis) | SMILES
4 | 0.47 M⁻¹ s⁻¹ | 0.04 M⁻¹ s⁻¹ | CC[C@@H](O)[C@H](C)C(=O)SCCNC(C)=O
5 | 4.2 M⁻¹ s⁻¹ | – | CCC(=O)C(C)C(=O)SCCNC(C)=O (stereo not drawn)
